In patent publication US20250134946A1 (GEL4MED, INC., priority 2021, published 2025):
Non-standard residues stand in square brackets, D forms with d. No end group written: not given here.

How the values were obtained:
[1] = cited from earlier work
[2] = Net peptide charge and isoelectric point (FIGS. 9-10); assay type: physicochemical; details: pH 7
Description: The peptide may be purified. For example, the peptide may be lyophilized. […] Other peptides are within the scope of the disclosure.
Exemplary peptides having a charge of +5 to +9 include […](d)[…], […](d)[…], and […](d)[…]. In other embodiments, the purified peptide may be substantially neutral. […] Net charge may be selected by peptide design. Design of electrostatic charge in the peptide hydrogel may allow control of charge interaction with cell membrane and proteins.

decorin = assay: ChaseABC release from peptide hydrogels, bioactivity on decorin (FIGS. 6B, 15); details: pilot data, days 3 and 5
Description: The protein was not degraded.
In addition to release and retention rates, in analogous experiments the released and retained ChaseABC enzyme will also be assayed for bioactivity. Activity will be assessed through the efficacy of the sample to digest the small proteoglycan decorin as described previously.
Importantly, the protein was not degraded.

NCCCC[C@H](N)C(=O)O [lysine]
side chain pKa [1]: about 10.5

O=C(O)C(F)(F)F [trifluoroacetic acid]
pKa [1]: about 0

VEVSVSVEV(d)PPTEVSVEVEV (VEVSVSVEV[dP]PTEVSVEVEV)
net charge [2]: net negative charge

chondroitinase ABC [ChaseABC]
bioactivity of released enzyme on decorin substrate (decorin): release of bioactive enzyme from the gel was demonstrated
